Several values for one entry are separate records, joined by “and”; a condition that tells them apart may be missing. Equal entries are not always repeated.
Columns and labels:
IgE (Immunoglobulin E) = experiment: IgE concentration in blood serum (ELISA); type: in vivo, NC/Nga mice; settings: for IgE Average Concentration / IgE Group Average: blood serum; for IgE Average Concentration: individual specimen; for IgE Group Average: mean of 5 mice
Protocol: The blood collected in a mouse was left at room temperature for 30 minutes and then centrifuged at 3000 rpm for 20 minutes. The blood serum obtained therefrom was analyzed via ELISA kit (Shibayagi, Japan).

mast cells = experiment: Histology: number of mast cells in skin (toluidine blue, x200); type: in vivo, NC/Nga mice; settings: for Average No. of Mast Cells × 200: individual mouse; for Average No. of Mast Cells × 200, Group Mean: mean of 5 mice
Protocol: (§1) 4-7) Histology (H & E, Toluidine Blue Stain) • d. Skin tissues were fixed in 10% formalin for at least 24 hours, prepared into paraffin blocks, cut into pieces in the size of 4 μm, dyed with hematoxylin & eosin (Sigma, USA), and then dyed again with toluidine blue (Sigma, USA) for more accurate identification of inflammatory cells.

[1] = test system: skin tissues of atopy-induced NC/Nga mice; experiment: Histology: H & E biopsy score of skin; type: in vivo; settings: for H & E biopsy score: group mean, acanthosis, hyperkeratosis, neutrophil infiltration, fibroblast hyperplasia, dermis each scored 1 to 3
Protocol: as §1
The evaluation standard for biopsy was calculated in an averaged score scale of 1 to 3 based on the status of acanthosis, hyperkeratosis, neutrophil infiltration, fibroblast hyperplasia, dermis, etc. […] Among them, a group treated with 1 mg/kg of chlorophyll a as a test drug was evaluated as being of significance (FIGS. 18-23).

[2] = test system: dorsal skin of NC/Nga mice induced with atopic dermatitis using DNCB; experiment: Dorsal skin inflammation of mice induced with atopic dermatitis (clinical images); type: in vivo; settings: 15th week, versus positive control, in words
Description: 4-6) Dorsal Skin Inflammation of a Mouse Induced with Atopic Dermatitis • c. The body weight of a mouse was not increased due to DNCB solution used for inducing atopy, however, there was no decrease in body weight by the administration of chlorophyll a. In the positive control group coated with only distilled water after atopy induction using DNCB, there were observed a thick cornified layer and inflammation and damage on skin.

[3] = test system: degranulation of mast cells; experiment: Histology: mast cells per degranulation level; type: in vivo, NC/Nga mice; settings: for No. of Mast Cells per value of degranulation level 1 / No. of Mast Cells per value of degranulation level 1, mean: intermediate level of degranulation; for No. of Mast Cells per value of degranulation level 1 / No. of Mast Cells per value of degranulation level 0 / No. of Mast Cells per value of degranulation level 2: individual mouse; for No. of Mast Cells per value of degranulation level 1, mean / No. of Mast Cells per value of degranulation level 0, mean / No. of Mast Cells per value of degranulation level 2, mean: mean of 5 mice; for No. of Mast Cells per value of degranulation level 0 / No. of Mast Cells per value of degranulation level 0, mean: normal degranulation; for No. of Mast Cells per value of degranulation level 2 / No. of Mast Cells per value of degranulation level 2, mean: serious level of degranulation
Protocol: as §1

[4] = test system: atopic dermatitis induced with DNCB in NC/Nga mice; experiment: Sensory evaluation (clinical visual skin score) in DNCB-induced atopic dermatitis; type: in vivo; parameters: key: total of five item scores, 0 = lowest, 15 = highest; settings: scale 0-15; for Sensory Evaluation Score, group mean: mean of 5 mice; for Sensory Evaluation Score mean: mean of A and B; for Sensory Evaluation Score mean / Sensory Evaluation Score A / Sensory Evaluation Score B: individual mouse; for Sensory Evaluation Score A: scorer A; for Sensory Evaluation Score B: scorer B
Protocol: Sensory evaluation was performed using the general clinical visual method. The result of visual evaluation was indicated in terms of the total score obtained by adding each of the evaluation scores for the five items shown in the below table. The scoring for the level of dermatitis was performed by two or more persons experienced in this experiment under mutual agreement. The score was set from “0” point, the lowest, to “15” point, the highest (Table 2).

C=Cc1c(C)c2cc3nc(c4c5[n-]c(cc6nc(cc1[n-]2)C(C)=C6CC)c(C)c5C(=O)[C@@H]4C(=O)OC)[C@@H](CCC(=O)OC/C=C(\C)CCC[C@H](C)CCC[C@H](C)CCCC(C)C)[C@@H]3C.[Mg+2] [chlorophyll a]
IgE Average Concentration (IgE (Immunoglobulin E); 1 mg/kg oral daily, 1 mg/kg): 104.198 ng/mL and 106.557 ng/mL and 166.675 ng/mL and 119.515 ng/mL and 149.499 ng/mL
IgE Group Average (IgE (Immunoglobulin E); 1 mg/kg oral daily, 1 mg/kg): 121.76 ± 15.58 ng/mL and 129.29 ± 27.60 ng/mL
IgE Average Concentration (IgE (Immunoglobulin E); 5 mg/kg oral daily, 5 mg/kg): 108.757 ng/mL and 115.652 ng/mL and 129.408 ng/mL and 88.578 ng/mL and 104.912 ng/mL
IgE Group Average (IgE (Immunoglobulin E); 5 mg/kg oral daily, 5 mg/kg): 109.46 ± 14.95 ng/mL
value of IgE (IgE (Immunoglobulin E); in words, dose not split): decreased
Average No. of Mast Cells × 200 (mast cells; 1 mg/kg oral daily): 9.3 and 7.6 and 5.4 and 8.9 and 10.4
Average No. of Mast Cells × 200, Group Mean (mast cells; 1 mg/kg oral daily): 8.32±1.195 and 8.32 ± 1.915 and 8.32
Average No. of Mast Cells × 200 (mast cells; 5 mg/kg oral daily): 7.3 and 10 and 12.7 and 11.8 and 11.1
Average No. of Mast Cells × 200, Group Mean (mast cells; 5 mg/kg oral daily): 10.8±2.083 and 10.58 ± 2.083 and 10.58
H & E biopsy score ([1]; 1 mg/kg oral daily): 4.6±0.55
tissue H&E reading: improvement in atopy symptom ([1]; 1 mg/kg oral daily, in words): the most improvement
H & E biopsy score ([1]; 5 mg/kg oral daily): 5±1.58
tissue damage of dorsal skin ([2]; 1 mg/kg oral daily): significant decreases
tissue damage of dorsal skin ([2]; 5 mg/kg oral daily): significant decreases
degranulation count of the mast cells ([3]; 1 mg/kg oral daily, in words): not significantly improved
No. of Mast Cells per value of degranulation level 1 ([3]; 1 mg/kg oral daily, 1 mg/kg): 2.87 and 1.44 and 1.91 and 1.75 and 2.57
No. of Mast Cells per value of degranulation level 1, mean ([3]; 1 mg/kg oral daily, 1 mg/kg): 2.11±0.59 and 2.11
No. of Mast Cells per value of degranulation level 1 ([3]; 5 mg/kg oral daily, 5 mg/kg): 0.75 and 2.31 and 2.76 and 2.57 and 4.31
No. of Mast Cells per value of degranulation level 1, mean ([3]; 5 mg/kg oral daily, 5 mg/kg): 2.54±1.27 and 2.54
No. of Mast Cells per value of degranulation level 0 ([3]; 1 mg/kg oral daily, 1 mg/kg): 4.12 and 5.55 and 2.82 and 5.89 and 4.83
No. of Mast Cells per value of degranulation level 0, mean ([3]; 1 mg/kg oral daily, 1 mg/kg): 4.64±1.22 and 4.64
No. of Mast Cells per value of degranulation level 0 ([3]; 5 mg/kg oral daily, 5 mg/kg): 5.98 and 6.31 and 4.51 and 7.41 and 3.81
No. of Mast Cells per value of degranulation level 0, mean ([3]; 5 mg/kg oral daily): 5.60
No. of Mast Cells per value of degranulation level 0, mean ([3]; 5 mg/kg oral daily, 5 mg/kg): 5.60±1.44
No. of Mast Cells per value of degranulation level 2 ([3]; 1 mg/kg oral daily, 1 mg/kg): 1.56 and 0.62 and 0.66 and 1.25 and 2.38
No. of Mast Cells per value of degranulation level 2, mean ([3]; 1 mg/kg oral daily, 1 mg/kg): 1.30±0.73 and 1.30
No. of Mast Cells per value of degranulation level 2 ([3]; 5 mg/kg oral daily, 5 mg/kg): 0.44 and 1.44 and 5.45 and 1.82 and 3.00
No. of Mast Cells per value of degranulation level 2, mean ([3]; 5 mg/kg oral daily, 5 mg/kg): 2.43±1.92 and 2.43
Sensory Evaluation Score, group mean ([4]; 1 mg/kg oral daily): 2.7±0.758 and 2.7
Sensory Evaluation Score mean ([4]; 1 mg/kg oral daily): 1.5 and 3 (2×) and 3.5 and 2.5
Sensory Evaluation Score A ([4]; 1 mg/kg oral daily): 2 (2×) and 3 (3×)
Sensory Evaluation Score B ([4]; 1 mg/kg oral daily): 1 and 4 (2×) and 2 and 3
Sensory Evaluation Score, group mean ([4]; 5 mg/kg oral daily): 2.7±1.789 and 2.7
Sensory Evaluation Score mean ([4]; 5 mg/kg oral daily): 5.5 and 1.5 (3×) and 3.5
Sensory Evaluation Score A ([4]; 5 mg/kg oral daily): 5 and 2 (3×) and 3
Sensory Evaluation Score B ([4]; 5 mg/kg oral daily): 6 and 1 (3×) and 4
